In patent US8012983B2, “Substituted triazolopyrazines useful for the treatment of degenerative and inflammatory diseases” (Galapagos NV, priority 2008, dated 2011):

Key:
[1] = Tolerability of compounds in healthy mice (body weight); type: in vivo; settings: 100 mg/kg/d, po, up to two weeks, DBA/1J mice, FIG. 6A
Procedure: This protocol is designed to assess the tolerability of the compounds of the invention in healthy DBA/1J mice to determine the “therapeutic window” as defined by the dosing range between efficacious (mouse therapeutic Collagen-Induced Arthritis model) and toxic doses.
Compounds are prepared for a dosing regimen of 100 mg/kg/d, po, free base, in a standard volume of injection of 0.1 mL/10 g of mice (equivalent to 10 mg/1 mL). For solution preparations, compounds were dissolved in 0.5% methyl-cellulose and 1% DMSO, once a week.
Groups are randomized based on body weight and treated for up to two weeks. Each group contained 5 mice and received either test compound at 100 mg/kg, a comparison compound at 100 mg/kg/d (Compound A) or vehicle on a daily basis in a dosing volume of 200 μL per mouse.
Potential drug toxicity is monitored by observation every day and by recording body weights three times a week for weight loss. All statistical analyses were performed using Student's t test.
To assess the general tolerability of the treatments, the total body weight is followed throughout the course of the study.

[2] = test system: MMP1 expression by activated synovial fibroblasts (RASFs); experiment: 'MMP assay': complex trigger-induced MMP1 expression by synovial fibroblasts (MMP1 ELISA); type: cell-based; settings: Homo sapiens, Fibroblast; RASFs, complex trigger, 48 hrs; read-out: MMP1 IC50
Summary of the method: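 Synovial fibroblasts seeded at 3,000 cells/well, treated with compound, then triggered with supernatant of TNF-α-treated THP-1 cells, diluted in M199 with low FBS. MMP1 in supernatant quantified by sandwich ELISA with biotinylated anti-MMP1 and streptavidin-HRP chemiluminescent detection.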

Compound	General tolerability: total body weight compared to the vehicle [1]	IC50 [2]
CC(C)N1C[C@@H]2C[C@H]1CN2c1ccc(Nc2ncc(-c3ccc4c(c3)CNC4=O)n3ncnc23)cc1 [Compound 1, 5-{8-[4-((1S,4S)-5-Isopropyl-2,5-diaza-bicyclo[2.2.1]hept-2-yl)-phenylamino]-[1,2,4]triazolo[1,5-a]pyrazin-5-yl}-2,3-dihydro-isoindol-1-one]	no statistically significant difference	> 1000 nM
CC(C)N1C[C@@H]2C[C@H]1CN2c1ccc(Nc2ncc(-c3coc(C(N)=O)c3)n3ncnc23)cc1 [Compound 2, 4-{8-[4-((1S,4S)-5-Isopropyl-2,5-diaza-bicyclo[2.2.1]hept-2-yl)-phenylamino]-[1,2,4]triazolo[1,5-a]pyrazin-5-yl}-furan-2-carboxamide]	no statistically significant difference	1 to 1000 nM
